Measured values as given in ChEMBL document CHEMBL5137054, “Xyloketal B Reverses Nutritional Hepatic Steatosis, Steatohepatitis, and Liver Fibrosis through Activation of the PPARα/PGC1α Signaling Pathway” (J Nat Prod, 2022).
Active and inactive are the calls of the source. The calls are words filed in the database; no cut-off is given here.

Experiments:
Mus musculus [1] = assay: Reduction in hepatic steatosis in HFD-induced C57BL/6J mouse model of NAFL assessed as reduction in serum cholesterol level at 20 to 40 mg/kg/day, ip administered from week 7 to week 12; type: functional, organism-based; conditions: dose 20-40 mg/kg/day, time 6.0 weeks
Mus musculus [2] = assay: Reduction in hepatic steatosis in HFD-induced C57BL/6J mouse model of NAFL assessed as reduction in serum AST level at 20 to 40 mg/kg/day, ip administered from week 7 to week 12; type: functional, organism-based; conditions: dose 20-40 mg/kg/day, time 6.0 weeks
Mus musculus [3] = assay: Upregulation of peroxisomal bifunctional enzyme gene transcriptional level in HFD-induced C57BL/6J mouse model of NAFL at 20 to 40 mg/kg/day, ip administered from week 7 to week 12 by qRT-PCR analysis; type: functional, organism-based; conditions: dose 20-40 mg/kg/day, time 6.0 weeks
[4] = Toxicity in C57BL/6J mouse assessed as effect on serum LDL level at 40 mg/kg, ip; type: organism-based; conditions: in vivo
Mus musculus [5] = assay: Upregulation of Acaa1a gene transcriptional level in HFD-induced C57BL/6J mouse model of NAFL at 20 to 40 mg/kg/day, ip administered from week 7 to week 12 by qRT-PCR analysis; type: functional, organism-based; conditions: dose 20-40 mg/kg/day, time 6.0 weeks
Mus musculus [6] = assay: Upregulation of Cpt1c gene transcriptional level in HFD-induced C57BL/6J mouse model of NAFL at 20 to 40 mg/kg/day, ip administered from week 7 to week 12 by qRT-PCR analysis; type: functional, organism-based; conditions: dose 20-40 mg/kg/day, time 6.0 weeks
Mus musculus [7] = assay: Reduction in hepatic steatosis in HFD-induced C57BL/6J mouse model of NAFL assessed as reduction in serum triglyceride level at 20 to 40 mg/kg/day, ip administered from week 7 to week 12; type: functional, organism-based; conditions: dose 20-40 mg/kg/day, time 6.0 weeks
[8] = Toxicity in C57BL/6J mouse assessed as effect on serum triglyceride level at 40 mg/kg, ip; type: organism-based; conditions: in vivo
Mus musculus [9] = assay: Upregulation of Cyp4a10 gene transcriptional level in HFD-induced C57BL/6J mouse model of NAFL at 20 to 40 mg/kg/day, ip administered from week 7 to week 12 by qRT-PCR analysis; type: functional, organism-based; conditions: dose 20-40 mg/kg/day, time 6.0 weeks
[10] = Toxicity in C57BL/6J mouse assessed as effect on serum glucose level at 40 mg/kg, ip; type: organism-based; conditions: in vivo
Mus musculus [11] = assay: Upregulation of peroxisomal acyl-coenzyme A oxidase-1 enzyme expression in liver of HFD-induced C57BL/6J mouse model of NAFL administered intraperitoneally from week 7 to week 12 by immunoblotting analysis; type: functional; conditions: dose 20-40 mg/kg/day, route ip, time 6.0 weeks, DDE = dose-dependent effect
Mus musculus [12] = assay: In vivo activation of PPARalpha/PGC1alpha pathway in HFD-induced C57BL/6J mouse model of NAFL assessed as increase in PPARalpha expression in liver administered intraperitoneally from week 7 to week 12 by immunoblotting analysis; type: functional, organism-based; conditions: dose 20-40 mg/kg/day, route ip, time 6.0 weeks, DDE = dose-dependent effect
Mus musculus [13] = assay: Reduction in hepatic steatosis in HFD-induced C57BL/6J mouse model of NAFL assessed as reduction in HFD-induced body weight gain at 20 to 40 mg/kg/day, ip administered from week 7 to week 12; type: functional, organism-based; conditions: dose 20-40 mg/kg/day, time 6.0 weeks
Mus musculus [14] = assay: Upregulation of Cpt1b gene transcriptional level in HFD-induced C57BL/6J mouse model of NAFL at 20 to 40 mg/kg/day, ip administered from week 7 to week 12 by qRT-PCR analysis; type: functional, organism-based; conditions: dose 20-40 mg/kg/day, time 6.0 weeks
Mus musculus [15] = assay: Anti-inflammatory activity against MCD-induced C57BL/6J mouse model of nonalcoholic steatohepatitis assessed as downregulation of IL1beta expression in liver at 20 to 40 mg/kg/day, ip administered from week 3 to week 4 by immunoblotting analysis; type: functional, organism-based; conditions: dose 20-40 mg/kg/day, time 2.0 weeks
Mus musculus [16] = assay: Upregulation of peroxisomal acyl-coenzyme A oxidase-1 enzyme expression in liver of HFD-induced C57BL/6J mouse model of NAFL at 15 mg/kg/day, ip administered from week 7 to week 12 by immunoblotting analysis; type: functional, organism-based; conditions: time 6.0 weeks
Mus musculus [17] = assay: Upregulation of peroxisomal acyl-coenzyme A oxidase-2 enzyme expression in liver of HFD-induced C57BL/6J mouse model of NAFL at 15 mg/kg/day, ip administered from week 7 to week 12 by immunoblotting analysis; type: functional, organism-based; conditions: time 6.0 weeks
Mus musculus [18] = assay: Upregulation of Cyp4a14 gene transcriptional level in HFD-induced C57BL/6J mouse model of NAFL at 20 to 40 mg/kg/day, ip administered from week 7 to week 12 by qRT-PCR analysis; type: functional, organism-based; conditions: dose 20-40 mg/kg/day, time 6.0 weeks
HepG2 = assay: Inhibition of FFA-induced lipid accumulation in human HepG2 cells incubated for 24 hrs by Oil Red O staining based spectrophotometric analysis; type: functional, cell-based; conditions: dose 50-100 µM, DDE = dose-dependent effect
Mus musculus [19] = assay: Reduction in hepatic steatosis in HFD-induced C57BL/6J mouse model of NAFL assessed as reduction in serum glucose level at 20 to 40 mg/kg/day, ip administered from week 7 to week 12; type: functional, organism-based; conditions: dose 20-40 mg/kg/day, time 6.0 weeks
Mus musculus [20] = assay: Upregulation of ACAA1 enzyme expression in liver of HFD-induced C57BL/6J mouse model of NAFL administered intraperitoneally from week 7 to week 12 by immunoblotting analysis; type: functional; conditions: dose 20-40 mg/kg/day, route ip, time 6.0 weeks, DDE = dose-dependent effect
Mus musculus [21] = assay: Reduction in hepatic steatosis in HFD-induced C57BL/6J mouse model of NAFL assessed as reduction in size of lipid droplets in hepatocytes at 20 to 40 mg/kg/day, ip administered from week 7 to week 12 by H&E staining analysis; type: functional, organism-based; conditions: dose 20-40 mg/kg/day, time 6.0 weeks
Mus musculus [22] = assay: Upregulation of Cpt1a gene transcriptional level in HFD-induced C57BL/6J mouse model of NAFL at 20 to 40 mg/kg/day, ip administered from week 7 to week 12 by qRT-PCR analysis; type: functional, organism-based; conditions: dose 20-40 mg/kg/day, time 6.0 weeks
[23] = Toxicity in C57BL/6J mouse assessed as effect on serum ALT level at 40 mg/kg, ip; type: organism-based; conditions: in vivo
[24] = Toxicity in C57BL/6J mouse assessed as effect on serum AST level at 40 mg/kg, ip; type: organism-based; conditions: in vivo
Mus musculus [25] = assay: Reduction in hepatic steatosis in HFD-induced C57BL/6J mouse model of NAFL assessed as reduction in serum AST/ALT ratio at 20 to 40 mg/kg/day, ip administered from week 7 to week 12; type: functional, organism-based; conditions: dose 20-40 mg/kg/day, time 6.0 weeks
Mus musculus [26] = assay: Antifibrotic activity against MCD-induced C57BL/6J mouse model of liver fibrosis assessed as reduction in alphaSMA level in liver at 20 to 40 mg/kg, ip administered from week 3 to week 6 by […]; type: functional, organism-based; conditions: dose 20-40 mg/kg, time 4.0 weeks
Mus musculus [27] = assay: Anti-inflammatory activity against MCD-induced C57BL/6J mouse model of nonalcoholic steatohepatitis assessed as reduction in necroinflammation foci in liver at 20 to 40 mg/kg/day, ip administered from week 3 to week 4 by H&E staining based light microscopic analysis; type: functional, organism-based; conditions: dose 20-40 mg/kg/day, time 2.0 weeks
Mus musculus [28] = assay: Antifibrotic activity against MCD-induced C57BL/6J mouse model of liver fibrosis assessed as reduction in collagen III level in liver at 20 to 40 mg/kg, ip administered from week 3 to week 6 by sirius red staining based light microscopic analysis; type: functional, organism-based; conditions: dose 20-40 mg/kg, time 4.0 weeks
Mus musculus [29] = assay: Upregulation of ACAA1 enzyme expression in liver of HFD-induced C57BL/6J mouse model of NAFL at 15 mg/kg/day, ip administered from week 7 to week 12 by immunoblotting analysis; type: functional, organism-based; conditions: time 6.0 weeks

Activity (Mus musculus [11]): Dde | Activity (Mus musculus [20]): Dde
Structure (SMILES): C[C@H]1CO[C@]2(C)Oc3cc(O)c4c(c3C[C@H]12)O[C@@]1(C)OC[C@H](C)[C@H]1C4
Activity (Mus musculus [1]): Active | Activity (Mus musculus [2]): Active | Activity (Mus musculus [3]): Active | Activity [4]: Non-Toxic | Activity (Mus musculus [5]): Active | Activity (Mus musculus [6]): Active | Activity (Mus musculus [7]): Active | Activity [8]: Non-Toxic | Activity (Mus musculus [9]): Active | Activity [10]: Non-Toxic | Activity (Mus musculus [12]): Dde | Activity (Mus musculus [13]): Active | Activity (Mus musculus [14]): Active | Activity (Mus musculus [15]): Active | Activity (Mus musculus [16]): Active | Activity (Mus musculus [17]): Active | Activity (Mus musculus [18]): Active | inhibition (HepG2): Dde | Activity (Mus musculus [19]): Active | Activity (Mus musculus [21]): Active | Activity (Mus musculus [22]): Active | Activity [23]: Non-Toxic | Activity [24]: Non-Toxic | Activity (Mus musculus [25]): Active | Activity (Mus musculus [26]): Active | Activity (Mus musculus [27]): Active | Activity (Mus musculus [28]): Active | Activity (Mus musculus [29]): Active
